According to patent US20220323406A1, “METHODS AND COMPOSITIONS FOR DIFFERENTIATING STEM CELLS” (Massachusetts Institute of Technology, priority 2019, published 2022):
Entries after “also recorded” stand apart in the source; their conditions may differ. Like-named read-outs stand apart in the source and are kept apart here.

Key:
[1] = tested on: 3D-cultured intestinal organoids (ENR or ENR+CD); test: Lysozyme secretion assay (3D culture), normalized to ATP; format: cell-based, mouse; conditions: 6-day ENR+CD differentiation; for Paneth cell differentiation (functional LYZ secretion), in combination with KPT-330: with KPT-330 (160 nM)
Protocol: Lysozyme assay (3D culture). ISC-enriched organoids cultured in 3D Matrigel with ENRCV media were passaged to 48-well plate in 3D Matrigel with ENRCV. At day zero, media were replaced to ENR or ENRCD with or without indicated compounds, and media were replaced every other day. At day six, cells were washed twice with basal media and treated with carbamylcholine chloride (Sigma, C4382) for 3 hours. Media were collected and lysozyme activity was measured by EnzChek Lysozyme Assay Kit (ThermoFisher, E22013).
Lysozyme secretion assay. ISC-enriched organoids in 3D Matrigel culture were passaged to a 48- or 96-well plate and cultured with ENR or ENR+CD media containing DMSO or each drug for 6 days. DMSO- or drug-containing media were changed every other day. On day 6, cells were washed with basal media twice and treated with basal media with or without 10 μM carbamoylcholine chloride for 3 h in a CO2 incubator at 37° C. A part of the conditioned media was collected and used for lysozyme assay (Thermo, E-22013) following the manufacturer's instruction. The fluorescence was measured using excitation/emission of 485/530 nm. CellTiter-Glo 3D Reagent (Promega, G9681) was added afterward, and the cell culture plate was incubated on an orbital shaker at RT for 30 min to induce cell lysis and to stabilize the luminescent signal. The solution was replaced to a 96-well white microplate, and luminescent signals were measured by a microplate reader (infinite M200, Tecan). The standard curve was prepared by diluting recombinant ATP (Promega, P1132). For both assays, a polynomial cubic curve was fitted to a set of standard data, and each sample value was calculated on the Microsoft Excel.

[2] = tested on: ENR+CD organoids; conditions: primary screen;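 further: compounds given at plating and again on day 3 over a 6-day differentiation from ENR+CV stem-cell-enriched precursors, ATP measured on day 6, plate median as control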
[3] = tested on: ENR+CD organoids; test: Secondary (validation) screen: ATP (CTG) assay, 2.5-D 384-well ENR+CD organoids; format: cell-based, mouse; conditions: 6-day ENR+CD, vs ENR+CD+DMSO
[4] = tested on: ENR+CD organoids (ISC to Paneth cell differentiation); test: Primary screen: CCh-stimulated lysozyme secretion LYZ.S, 2.5-D 384-well ENR+CD organoid differentiation; format: cell-based, mouse; conditions: primary screen
Description: (§1) High-throughput screening.

[5] = tested on: ENR+CD organoids (ISC to Paneth cell differentiation); test: Secondary (validation) screen: LYZ.NS basal lysozyme secretion, 2.5-D 384-well ENR+CD organoids; format: cell-based, mouse; conditions: 6-day ENR+CD, vs ENR+CD+DMSO
[6] = tested on: ENR+CD organoids (ISC to Paneth cell differentiation); test: Primary screen: basal (non-stimulated) lysozyme secretion LYZ.NS, 2.5-D 384-well ENR+CD organoid differentiation; format: cell-based, mouse; conditions: for primary screen hit call (SSMD and z-scored FC cutoffs in both LYZ assays): LYZ.NS and LYZ.S, 0.08-10 uM, 6 days ENR+CD; for Dose.FC.LYZ.NS / Z.LYZ.NS (standard z score): primary screen
Description: as §1

[7] = tested on: ENR+CD organoids (ISC to Paneth cell differentiation); test: Secondary (validation) screen: LYZ.S CCh-stimulated lysozyme secretion, 2.5-D 384-well ENR+CD organoids; format: cell-based, mouse; conditions: 6-day ENR+CD, vs ENR+CD+DMSO

CC1=C(/C=C/C(=C/C=C/C(C)=C/C(=O)O)c2ccc(C)cc2)C(C)(C)CCC1 [SR11302]
Paneth cell differentiation (functional LYZ secretion), compound alone [1]: also decreases functional LYZ secretion
Paneth cell differentiation (functional LYZ secretion), in combination with KPT-330 [1]: significantly decreases functional LYZ secretion

CCc1c(C(=O)C(N)=O)c2c(OCC(=O)O)cccc2n1Cc1ccccc1 [Varespladib (LY315920), Varespladib, reference compound]
Dose.FC.CTG ([2]; dose 0.08 uM): 0.428 log2 fold change
Z.CTG (standard z score) ([2]; dose 0.08 uM): 1.022
Dose.FC.CTG ([2]; dose 0.40 uM): 0.362 log2 fold change
Z.CTG (standard z score) ([2]; dose 0.40 uM): 0.864
Dose.FC.CTG ([2]; dose 2.00 uM): 0.152 log2 fold change
Z.CTG (standard z score) ([2]; dose 2.00 uM): 0.363
Dose.FC.CTG ([2]; dose 10.00 uM): 0.241 log2 fold change
Z.CTG (standard z score) ([2]; dose 10.00 uM): 0.575
Dose.FC.CTG ([3]; 0.02 uM): 0.027 log2 fold change
Dose.FC.CTG ([3]; 0.04 uM): 0.113 log2 fold change
Dose.FC.CTG ([3]; 0.08 uM): 0.207 log2 fold change
Dose.FC.CTG ([3]; […]): 0.148 log2 fold change
Dose.FC.LYZ.S ([4]; dose 0.08 uM): 0.274 log2 fold change
Dose.FC.LYZ.S ([4]; dose 0.40 uM): 0.157 log2 fold change
Dose.FC.LYZ.S ([4]; dose 2.00 uM): 0.176 log2 fold change
Dose.FC.LYZ.S ([4]; dose 10.00 uM): 0.051 log2 fold change
Dose.FC.LYZ.NS ([5]; 0.02 uM): −0.091 log2 fold change
Dose.FC.LYZ.NS ([5]; 0.04 uM): 0.015 log2 fold change
Dose.FC.LYZ.NS ([5]; 0.08 uM): 0.090 log2 fold change
Dose.FC.LYZ.NS ([5]; […]): 0.156 log2 fold change
primary screen hit call (SSMD and z-scored FC cutoffs in both LYZ assays) [6]: sole hit in their respective pathway
Dose.FC.LYZ.NS ([6]; dose 0.08 uM): 0.176 log2 fold change
Z.LYZ.NS (standard z score) ([6]; dose 0.08 uM): 1.533
Dose.FC.LYZ.NS ([6]; dose 0.40 uM): 0.197 log2 fold change
Z.LYZ.NS (standard z score) ([6]; dose 0.40 uM): 1.719
Dose.FC.LYZ.NS ([6]; dose 2.00 uM): 0.164 log2 fold change
Z.LYZ.NS (standard z score) ([6]; dose 2.00 uM): 1.430
Dose.FC.LYZ.NS ([6]; dose 10.00 uM): 0.074 log2 fold change
Z.LYZ.NS (standard z score) ([6]; dose 10.00 uM): 0.643
Dose.FC.LYZ.S ([7]; 0.02 uM): −0.138 log2 fold change
Dose.FC.LYZ.S ([7]; 0.04 uM): −0.044 log2 fold change
Dose.FC.LYZ.S ([7]; 0.08 uM): 0.065 log2 fold change
Dose.FC.LYZ.S ([7]; […]): 0.102 log2 fold change

COc1cc2c(Nc3ccc(NC(=O)c4ccccc4)cc3)ncnc2cc1OCCCN1CCOCC1 [ZM447439, reference compound]
Paneth cell differentiation (functional LYZ secretion), compound alone [1]: did significantly increase Paneth cell differentiation
primary screen hit call (SSMD and z-scored FC cutoffs in both LYZ assays) [6]: lower-effect size hit of the primary screen

O=C(c1ccc(F)c(F)c1Nc1ccc(I)cc1F)N1CC(O)([C@@H]2CCCCN2)C1 [cobimetinib]
Paneth cell differentiation (functional LYZ secretion), compound alone [1]: did not significantly alter Paneth cell differentiation
Paneth cell differentiation (functional LYZ secretion), in combination with KPT-330 [1]: differentiation was enhanced; also recorded: significantly enhance Paneth cell differentiation

Cc1ccc(C(=O)Cn2c3c(sc2=N)CCCC3)cc1 [pifithrin-α]
Paneth cell differentiation (functional LYZ secretion), compound alone [1]: neither P53 inhibitor altered Paneth cell differentiation
Paneth cell differentiation (functional LYZ secretion), in combination with KPT-330 [1]: neither P53 inhibitor altered Paneth cell differentiation

c1ccc2c(CCNc3ccc(Nc4ccncc4)cc3)c[nH]c2c1 [serdemetan]
Paneth cell differentiation (functional LYZ secretion), compound alone [1]: neither P53 inhibitor altered Paneth cell differentiation
Paneth cell differentiation (functional LYZ secretion), in combination with KPT-330 [1]: neither P53 inhibitor altered Paneth cell differentiation
